Legend:
Assay in all cases: KINOMEscan competition binding
[1] = tested on: FLT3 (human), P36888 [D835Y]
MARK2 (human) = MARK2 (human) (UniProt Q7KZI7)
[2] = tested on: PIK3CA (human), P42336 [Q546K]
MAPK10 (human) = MAPK10 (human) (UniProt P53779)
PLK4 (human) = PLK4 (human) (UniProt O00444)
NIM1 (human) = NIM1 (human) (UniProt Q8IY84)
GSK3B (human) = GSK3B (human) (UniProt P49841)
MAP3K10 (human) = MAP3K10 (human) (UniProt Q02779)
MAP2K5 (human) = MAP2K5 (human) (UniProt Q13163)
EPHA5 (human) = EPHA5 (human) (UniProt P54756)
MAP3K6 (human) = MAP3K6 (human) (UniProt O95382)
CHUK (human) = CHUK (human) (UniProt O15111)
SBK1 (human) = SBK1 (human) (UniProt Q52WX2)
[3] = tested on: PIK3CA (human), P42336 [E545K]
[4] = tested on: FLT3 (human), P36888 [ITD]
ADCK4 (human) = ADCK4 (human) (UniProt Q96D53)
EPHA2 (human) = EPHA2 (human) (UniProt P29317)
AKT2 (human) = AKT2 (human) (UniProt P31751)
Chain of AKT2 (human) (P31751 whole entry, looked up): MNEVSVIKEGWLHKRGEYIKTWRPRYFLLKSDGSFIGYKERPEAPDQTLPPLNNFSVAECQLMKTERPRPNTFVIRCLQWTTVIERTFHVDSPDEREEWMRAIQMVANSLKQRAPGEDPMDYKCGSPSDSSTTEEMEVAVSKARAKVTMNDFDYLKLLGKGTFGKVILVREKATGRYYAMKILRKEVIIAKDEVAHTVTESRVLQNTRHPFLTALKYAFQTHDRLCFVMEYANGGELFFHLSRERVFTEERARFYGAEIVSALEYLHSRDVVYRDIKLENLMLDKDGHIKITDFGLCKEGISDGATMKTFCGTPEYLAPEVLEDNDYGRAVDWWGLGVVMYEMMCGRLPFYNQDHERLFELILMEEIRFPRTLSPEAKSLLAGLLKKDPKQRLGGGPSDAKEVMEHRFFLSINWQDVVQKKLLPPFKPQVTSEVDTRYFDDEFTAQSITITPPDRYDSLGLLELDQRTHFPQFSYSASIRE

PIK3C2B (human) = PIK3C2B (human) (UniProt O00750)
FES (human) = FES (human) (UniProt P07332)
PRKAA1 (human) = PRKAA1 (human) (UniProt Q13131)
TEK (human) = TEK (human) (UniProt Q02763)
Chain of TEK (human) (Q02763 whole entry, looked up): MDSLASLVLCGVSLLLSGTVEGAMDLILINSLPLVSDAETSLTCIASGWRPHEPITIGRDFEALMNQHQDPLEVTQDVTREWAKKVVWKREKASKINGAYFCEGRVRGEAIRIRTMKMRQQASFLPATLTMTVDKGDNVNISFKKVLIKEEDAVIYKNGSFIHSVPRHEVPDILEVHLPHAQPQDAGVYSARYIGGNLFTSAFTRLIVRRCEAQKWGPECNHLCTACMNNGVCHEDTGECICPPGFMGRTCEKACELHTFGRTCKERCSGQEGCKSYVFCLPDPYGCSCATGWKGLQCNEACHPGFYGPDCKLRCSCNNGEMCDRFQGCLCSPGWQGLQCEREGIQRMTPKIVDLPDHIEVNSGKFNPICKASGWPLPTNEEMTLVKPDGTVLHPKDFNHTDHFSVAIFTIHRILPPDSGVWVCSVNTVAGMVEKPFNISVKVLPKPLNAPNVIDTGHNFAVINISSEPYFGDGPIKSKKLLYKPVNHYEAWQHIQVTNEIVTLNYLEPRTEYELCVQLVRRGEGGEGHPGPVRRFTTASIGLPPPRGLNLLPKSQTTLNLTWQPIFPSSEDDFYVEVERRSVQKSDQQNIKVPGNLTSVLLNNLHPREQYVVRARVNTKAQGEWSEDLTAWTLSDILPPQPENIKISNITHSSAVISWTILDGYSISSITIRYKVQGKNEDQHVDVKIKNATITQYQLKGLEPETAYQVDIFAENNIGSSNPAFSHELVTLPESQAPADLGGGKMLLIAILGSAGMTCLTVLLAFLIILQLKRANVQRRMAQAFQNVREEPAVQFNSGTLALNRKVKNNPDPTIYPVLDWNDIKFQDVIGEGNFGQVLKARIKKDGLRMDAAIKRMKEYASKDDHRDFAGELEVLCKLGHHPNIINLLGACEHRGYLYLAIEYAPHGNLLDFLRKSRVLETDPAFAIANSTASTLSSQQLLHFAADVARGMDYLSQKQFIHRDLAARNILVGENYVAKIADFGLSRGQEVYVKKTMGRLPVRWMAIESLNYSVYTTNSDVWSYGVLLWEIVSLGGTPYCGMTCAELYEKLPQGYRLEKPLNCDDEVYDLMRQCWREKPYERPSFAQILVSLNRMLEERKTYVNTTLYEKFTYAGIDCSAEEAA

SGK3 (human) = SGK3 (human) (UniProt Q96BR1)
CAMK1D (human) = CAMK1D (human) (UniProt Q8IU85)
CHEK1 (human) = CHEK1 (human) (UniProt O14757)
OXSR1 (human) = OXSR1 (human) (UniProt O95747)
Chain of OXSR1 (human) (O95747 whole entry, looked up): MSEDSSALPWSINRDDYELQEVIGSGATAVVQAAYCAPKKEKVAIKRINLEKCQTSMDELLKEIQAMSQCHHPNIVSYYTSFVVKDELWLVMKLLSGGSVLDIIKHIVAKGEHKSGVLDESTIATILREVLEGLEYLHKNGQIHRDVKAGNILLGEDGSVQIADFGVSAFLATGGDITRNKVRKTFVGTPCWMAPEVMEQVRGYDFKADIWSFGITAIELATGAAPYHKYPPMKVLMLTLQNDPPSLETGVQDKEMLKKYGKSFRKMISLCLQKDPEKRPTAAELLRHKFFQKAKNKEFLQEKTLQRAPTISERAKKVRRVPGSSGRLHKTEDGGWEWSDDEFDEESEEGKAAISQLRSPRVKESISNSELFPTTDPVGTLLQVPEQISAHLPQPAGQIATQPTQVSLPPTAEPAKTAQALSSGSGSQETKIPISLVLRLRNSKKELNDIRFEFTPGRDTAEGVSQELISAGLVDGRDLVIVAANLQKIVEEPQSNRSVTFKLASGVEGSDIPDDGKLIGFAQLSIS

DAPK2 (human) = DAPK2 (human) (UniProt Q9UIK4)
LIMK2 (human) = LIMK2 (human) (UniProt P53671)
TAOK3 (human) = TAOK3 (human) (UniProt Q9H2K8)
PLK3 (human) = PLK3 (human) (UniProt Q9H4B4)
NEK2 (human) = NEK2 (human) (UniProt P51955)
CLK2 (human) = CLK2 (human) (UniProt P49760)
EGFR (human) = EGFR (human) (UniProt P00533)
Chain of EGFR (human) (P00533 whole entry, looked up): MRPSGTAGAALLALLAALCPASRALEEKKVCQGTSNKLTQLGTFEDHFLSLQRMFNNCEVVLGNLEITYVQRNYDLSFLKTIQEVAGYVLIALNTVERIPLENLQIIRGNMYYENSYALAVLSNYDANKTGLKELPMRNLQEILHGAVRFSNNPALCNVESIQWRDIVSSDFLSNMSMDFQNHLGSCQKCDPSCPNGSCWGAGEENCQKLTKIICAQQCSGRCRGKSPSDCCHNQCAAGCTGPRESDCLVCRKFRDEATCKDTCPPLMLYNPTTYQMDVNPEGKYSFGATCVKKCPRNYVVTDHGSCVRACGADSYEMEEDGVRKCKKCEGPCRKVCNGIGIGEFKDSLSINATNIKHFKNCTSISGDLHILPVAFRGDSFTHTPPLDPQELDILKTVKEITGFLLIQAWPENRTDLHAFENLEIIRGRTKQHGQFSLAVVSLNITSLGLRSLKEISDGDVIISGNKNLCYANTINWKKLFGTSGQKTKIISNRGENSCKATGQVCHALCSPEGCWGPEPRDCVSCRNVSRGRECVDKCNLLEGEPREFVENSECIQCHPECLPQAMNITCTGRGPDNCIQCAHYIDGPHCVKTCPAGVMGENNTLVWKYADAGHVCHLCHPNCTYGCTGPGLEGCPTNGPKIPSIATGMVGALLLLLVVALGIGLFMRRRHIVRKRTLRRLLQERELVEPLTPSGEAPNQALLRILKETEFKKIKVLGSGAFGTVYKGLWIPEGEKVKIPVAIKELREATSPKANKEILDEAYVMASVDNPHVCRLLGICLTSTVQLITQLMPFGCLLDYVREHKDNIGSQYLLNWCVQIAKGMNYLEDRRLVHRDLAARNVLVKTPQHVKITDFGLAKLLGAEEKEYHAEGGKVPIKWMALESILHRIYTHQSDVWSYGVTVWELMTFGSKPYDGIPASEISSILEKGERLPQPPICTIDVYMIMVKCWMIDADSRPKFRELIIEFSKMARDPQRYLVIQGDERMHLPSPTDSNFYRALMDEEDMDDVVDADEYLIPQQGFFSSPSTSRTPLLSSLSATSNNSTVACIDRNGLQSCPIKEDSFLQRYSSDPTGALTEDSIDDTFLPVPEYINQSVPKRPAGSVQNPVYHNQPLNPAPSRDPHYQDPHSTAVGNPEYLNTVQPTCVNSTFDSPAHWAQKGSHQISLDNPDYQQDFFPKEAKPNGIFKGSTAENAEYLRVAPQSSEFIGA

[5] = target: TYK2 JH2 pseudokinase (human) (UniProt P29597)
YES1 (human) = YES1 (human) (UniProt P07947)
ALK (human) = ALK (human) (UniProt Q9UM73)
CAMK1G (human) = CAMK1G (human) (UniProt Q96NX5)
SRPK3 (human) = SRPK3 (human) (UniProt Q9UPE1)
Chain of SRPK3 (human) (Q9UPE1 whole entry, looked up): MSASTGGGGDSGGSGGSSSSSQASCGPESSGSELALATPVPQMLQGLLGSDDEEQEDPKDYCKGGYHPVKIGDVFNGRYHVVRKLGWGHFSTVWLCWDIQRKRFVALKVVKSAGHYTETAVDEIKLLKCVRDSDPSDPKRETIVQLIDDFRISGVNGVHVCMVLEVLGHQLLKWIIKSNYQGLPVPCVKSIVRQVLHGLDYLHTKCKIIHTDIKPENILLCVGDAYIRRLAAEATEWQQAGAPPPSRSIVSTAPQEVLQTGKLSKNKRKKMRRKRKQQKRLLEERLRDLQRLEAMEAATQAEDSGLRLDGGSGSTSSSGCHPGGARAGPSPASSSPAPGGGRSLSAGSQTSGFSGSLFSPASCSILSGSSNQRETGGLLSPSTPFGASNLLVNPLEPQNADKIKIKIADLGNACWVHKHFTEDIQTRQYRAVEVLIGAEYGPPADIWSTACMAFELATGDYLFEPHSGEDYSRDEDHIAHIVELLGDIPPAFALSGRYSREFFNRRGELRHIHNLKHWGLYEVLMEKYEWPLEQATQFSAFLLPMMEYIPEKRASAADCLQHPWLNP

PKN2 (human) = PKN2 (human) (UniProt Q16513)
[6] = tested on: ABL1 (human), P00519 [Y253F]
ROS1 (human) = ROS1 (human) (UniProt P08922)
STK10 (human) = STK10 (human) (UniProt O94804)
FRK (human) = FRK (human) (UniProt P42685)

Chain of MAPK10 (human) (P53779 whole entry, looked up): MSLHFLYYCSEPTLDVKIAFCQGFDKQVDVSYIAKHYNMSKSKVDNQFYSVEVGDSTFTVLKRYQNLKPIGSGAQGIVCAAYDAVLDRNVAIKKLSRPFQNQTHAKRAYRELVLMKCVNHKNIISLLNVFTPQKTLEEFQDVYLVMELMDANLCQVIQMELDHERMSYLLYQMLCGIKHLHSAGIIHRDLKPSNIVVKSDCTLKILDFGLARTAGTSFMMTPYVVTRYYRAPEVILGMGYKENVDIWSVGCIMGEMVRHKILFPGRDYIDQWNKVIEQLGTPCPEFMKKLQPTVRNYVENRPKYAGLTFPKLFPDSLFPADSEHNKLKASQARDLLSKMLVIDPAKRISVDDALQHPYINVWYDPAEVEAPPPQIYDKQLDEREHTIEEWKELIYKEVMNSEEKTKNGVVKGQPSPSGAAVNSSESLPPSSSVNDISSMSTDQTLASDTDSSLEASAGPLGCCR
Chain of GSK3B (human) (P49841 whole entry, looked up): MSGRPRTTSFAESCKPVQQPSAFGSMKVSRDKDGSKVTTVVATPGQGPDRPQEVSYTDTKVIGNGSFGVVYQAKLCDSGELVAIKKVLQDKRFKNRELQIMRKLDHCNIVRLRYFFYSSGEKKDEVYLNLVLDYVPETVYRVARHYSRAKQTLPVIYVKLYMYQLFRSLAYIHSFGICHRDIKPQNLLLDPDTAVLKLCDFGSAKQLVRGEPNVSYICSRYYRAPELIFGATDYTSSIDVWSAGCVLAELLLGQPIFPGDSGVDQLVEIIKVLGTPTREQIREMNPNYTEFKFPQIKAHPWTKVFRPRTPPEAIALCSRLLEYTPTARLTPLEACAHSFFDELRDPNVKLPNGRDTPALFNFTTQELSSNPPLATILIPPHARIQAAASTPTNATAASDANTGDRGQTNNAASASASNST

SMILES: CN(C)C/C=C/C(=O)Nc1cccc(C(=O)Nc2ccc(Nc3nccc(-c4cccnc4)n3)cc2)c1
- kinase still bound, per cent of control ([1]; compound 1.0 µM): 13%
- kinase still bound, per cent of control (MARK2 (human); compound 1.0 µM): 69%
- kinase still bound, per cent of control ([2]; compound 1.0 µM): 100%
- kinase still bound, per cent of control (MAPK10 (human); compound 1.0 µM): 0%
- kinase still bound, per cent of control (PLK4 (human); compound 1.0 µM): 52%
- kinase still bound, per cent of control (NIM1 (human); compound 1.0 µM): 100%
- kinase still bound, per cent of control (GSK3B (human); compound 1.0 µM): 78%
- kinase still bound, per cent of control (MAP3K10 (human); compound 1.0 µM): 65%
- kinase still bound, per cent of control (MAP2K5 (human); compound 1.0 µM): 6.8%
- kinase still bound, per cent of control (EPHA5 (human); compound 1.0 µM): 96%
- kinase still bound, per cent of control (MAP3K6 (human); compound 1.0 µM): 100%
- kinase still bound, per cent of control (CHUK (human); compound 1.0 µM): 53%
- kinase still bound, per cent of control (SBK1 (human); compound 1.0 µM): 66%
- kinase still bound, per cent of control ([3]; compound 1.0 µM): 100%
- kinase still bound, per cent of control ([4]; compound 1.0 µM): 16%
- kinase still bound, per cent of control (ADCK4 (human); compound 1.0 µM): 69%
- kinase still bound, per cent of control (EPHA2 (human); compound 1.0 µM): 86%
- kinase still bound, per cent of control (AKT2 (human); compound 1.0 µM): 96%
- kinase still bound, per cent of control (PIK3C2B (human); compound 1.0 µM): 100%
- kinase still bound, per cent of control (FES (human); compound 1.0 µM): 100%
- kinase still bound, per cent of control (PRKAA1 (human); compound 1.0 µM): 92%
- kinase still bound, per cent of control (TEK (human); compound 1.0 µM): 98%
- kinase still bound, per cent of control (SGK3 (human); compound 1.0 µM): 100%
- kinase still bound, per cent of control (CAMK1D (human); compound 1.0 µM): 100%
- kinase still bound, per cent of control (CHEK1 (human); compound 1.0 µM): 100%
- kinase still bound, per cent of control (OXSR1 (human); compound 1.0 µM): 96%
- kinase still bound, per cent of control (DAPK2 (human); compound 1.0 µM): 75%
- kinase still bound, per cent of control (LIMK2 (human); compound 1.0 µM): 82%
- kinase still bound, per cent of control (TAOK3 (human); compound 1.0 µM): 94%
- kinase still bound, per cent of control (PLK3 (human); compound 1.0 µM): 75%
- kinase still bound, per cent of control (NEK2 (human); compound 1.0 µM): 86%
- kinase still bound, per cent of control (CLK2 (human); compound 1.0 µM): 18%
- kinase still bound, per cent of control (EGFR (human); compound 1.0 µM): 95%
- kinase still bound, per cent of control ([5]; compound 1.0 µM): 5.8%
- kinase still bound, per cent of control (YES1 (human); compound 1.0 µM): 98%
- kinase still bound, per cent of control (ALK (human); compound 1.0 µM): 100%
- kinase still bound, per cent of control (CAMK1G (human); compound 1.0 µM): 78%
- kinase still bound, per cent of control (SRPK3 (human); compound 1.0 µM): 28%
- kinase still bound, per cent of control (PKN2 (human); compound 1.0 µM): 33%
- kinase still bound, per cent of control ([6]; compound 1.0 µM): 39%
- kinase still bound, per cent of control (ROS1 (human); compound 1.0 µM): 100%
- kinase still bound, per cent of control (STK10 (human); compound 1.0 µM): 100%
- kinase still bound, per cent of control (FRK (human); compound 1.0 µM): 90%

SMILES: Cc1ccc(NC(=O)c2ccc(NC(=O)/C=C/CN(C)C)cc2)cc1Nc1nccc(-c2cccnc2)n1
- kinase still bound, per cent of control ([1]; compound 10.0 µM): 33%
- kinase still bound, per cent of control (MARK2 (human); compound 10.0 µM): 78%
- kinase still bound, per cent of control ([2]; compound 10.0 µM): 94%
- Kd (MAPK10 (human)): 100 nM
- kinase still bound, per cent of control (MAPK10 (human); compound 10.0 µM): 0.25%
- kinase still bound, per cent of control (PLK4 (human); compound 10.0 µM): 41%
- kinase still bound, per cent of control (NIM1 (human); compound 10.0 µM): 92%
- kinase still bound, per cent of control (GSK3B (human); compound 10.0 µM): 87%
- kinase still bound, per cent of control (MAP3K10 (human); compound 10.0 µM): 100%
- kinase still bound, per cent of control (MAP2K5 (human); compound 10.0 µM): 66%
- kinase still bound, per cent of control (EPHA5 (human); compound 10.0 µM): 97%
- kinase still bound, per cent of control (MAP3K6 (human); compound 10.0 µM): 100%
- kinase still bound, per cent of control (CHUK (human); compound 10.0 µM): 70%
- kinase still bound, per cent of control (SBK1 (human); compound 10.0 µM): 77%
- kinase still bound, per cent of control ([3]; compound 10.0 µM): 96%
- kinase still bound, per cent of control ([4]; compound 10.0 µM): 46%
- kinase still bound, per cent of control (ADCK4 (human); compound 10.0 µM): 60%
- kinase still bound, per cent of control (EPHA2 (human); compound 10.0 µM): 90%
- kinase still bound, per cent of control (AKT2 (human); compound 10.0 µM): 100%
- kinase still bound, per cent of control (PIK3C2B (human); compound 10.0 µM): 93%
- kinase still bound, per cent of control (FES (human); compound 10.0 µM): 100%
- kinase still bound, per cent of control (PRKAA1 (human); compound 10.0 µM): 73%
- kinase still bound, per cent of control (TEK (human); compound 10.0 µM): 93%
- kinase still bound, per cent of control (SGK3 (human); compound 10.0 µM): 99%
- kinase still bound, per cent of control (CAMK1D (human); compound 10.0 µM): 85%
- kinase still bound, per cent of control (CHEK1 (human); compound 10.0 µM): 100%
- kinase still bound, per cent of control (OXSR1 (human); compound 10.0 µM): 82%
- kinase still bound, per cent of control (DAPK2 (human); compound 10.0 µM): 82%
- kinase still bound, per cent of control (LIMK2 (human); compound 10.0 µM): 78%
- kinase still bound, per cent of control (TAOK3 (human); compound 10.0 µM): 19%
- kinase still bound, per cent of control (PLK3 (human); compound 10.0 µM): 46%
- kinase still bound, per cent of control (NEK2 (human); compound 10.0 µM): 100%
- kinase still bound, per cent of control (CLK2 (human); compound 10.0 µM): 100%
- kinase still bound, per cent of control (EGFR (human); compound 10.0 µM): 62%
- kinase still bound, per cent of control ([5]; compound 10.0 µM): 14%
- kinase still bound, per cent of control (YES1 (human); compound 10.0 µM): 100%
- kinase still bound, per cent of control (ALK (human); compound 10.0 µM): 100%
- kinase still bound, per cent of control (CAMK1G (human); compound 10.0 µM): 79%
- kinase still bound, per cent of control (SRPK3 (human); compound 10.0 µM): 76%
- kinase still bound, per cent of control (PKN2 (human); compound 10.0 µM): 91%
- kinase still bound, per cent of control ([6]; compound 10.0 µM): 39%
- kinase still bound, per cent of control (ROS1 (human); compound 10.0 µM): 100%
- kinase still bound, per cent of control (STK10 (human); compound 10.0 µM): 89%
- kinase still bound, per cent of control (FRK (human); compound 10.0 µM): 86%

Reference: the kinase profiling compilation of Christmann-Franck et al. (2016)
